The nature of data set [1]: luciferase reporter signal suppression in cells – H4 neuroglioma cells, luminescence, dose response (AID 1990). In kind it is functional, cell-based.
Data set [2] can be described thus: Luminescence Cell-Based Dose Response HTS to Identify Inhibitors of 5'UTR Stem-Loop Driven Prion Protein mRNA Translation in H4 Neuroglioblastoma Cells. [Related pubchem assays: 1827 (Project Summary), 1813 (Primary HTS)]. The data set is classed as functional.
A short description of data set [3]: alpha-synuclein stem-loop luciferase translation blockers – H4 neuroglioma cells, luminescence, confirmation (AID 1988). The data set is classed as functional, cell-based.
Data set [4] concerns Streptococcus sp. 'group A'. Put plainly: Streptococcus pyogenes SK(-)GAS viability under kanamycin – luminescence, BacTiterGlo, confirmation, counter-screen for streptokinase expression inhibitor project, dose response (AID 1900). In kind it is functional, organism-based. For orientation: The purpose of a counterscreen is to sort out artefacts and off-target activity.
A further data set concerns Streptococcus. Put plainly: GAS UMAA2166 growth inhibition – luminescence, BacTiterGlo, counter-screen for streptokinase expression inhibitor project, dose response (AID 1915).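 Note: potency for reduction of bacterial viability or growth.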 In kind it is functional, organism-based.
Another data set addresses Cytochrome P450 2D6 (Homo sapiens, UniProt P10635).
The target of the next data set is Cytochrome P450 2C19 (Homo sapiens, UniProt P33261). Put plainly: Cytochrome panel assay with activity outcomes. Panel member name: p450-cyp2c19 Compounds with AC50 equal or less than 10 uM are considered active. In kind it is functional.
The target of the next data set is Cytochrome P450 3A4 (Homo sapiens, UniProt P08684).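 Note: CYP3A4 tested as one member of a cytochrome P450 panel screen.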
A short description of data set [5]: Luminescence Cell-Based Dose Response HTS to Identify Activators of Luciferase Translation or Activity in H4 […] Cells. [Related pubchem assays: 1829 (Project Summary), 1814 (Primary HTS)]. The data set is classed as functional.
The next data set relates to H4. Put plainly: Luminescence Cell-Based Dose Response HTS to Identify Activators of 5'UTR Stem-Loop Driven Prion Protein mRNA Translation in H4 Neuroglioblastoma Cells. [Related pubchem assays: 1829 (Project Summary), 1814 (Primary HTS)]. In kind it is functional. The note with it: Homo sapiens.
The next data set has as its target T1, Protein RecA (Mycobacterium tuberculosis, UniProt P9WHJ3).
T1 sequence (P9WHJ3 whole entry): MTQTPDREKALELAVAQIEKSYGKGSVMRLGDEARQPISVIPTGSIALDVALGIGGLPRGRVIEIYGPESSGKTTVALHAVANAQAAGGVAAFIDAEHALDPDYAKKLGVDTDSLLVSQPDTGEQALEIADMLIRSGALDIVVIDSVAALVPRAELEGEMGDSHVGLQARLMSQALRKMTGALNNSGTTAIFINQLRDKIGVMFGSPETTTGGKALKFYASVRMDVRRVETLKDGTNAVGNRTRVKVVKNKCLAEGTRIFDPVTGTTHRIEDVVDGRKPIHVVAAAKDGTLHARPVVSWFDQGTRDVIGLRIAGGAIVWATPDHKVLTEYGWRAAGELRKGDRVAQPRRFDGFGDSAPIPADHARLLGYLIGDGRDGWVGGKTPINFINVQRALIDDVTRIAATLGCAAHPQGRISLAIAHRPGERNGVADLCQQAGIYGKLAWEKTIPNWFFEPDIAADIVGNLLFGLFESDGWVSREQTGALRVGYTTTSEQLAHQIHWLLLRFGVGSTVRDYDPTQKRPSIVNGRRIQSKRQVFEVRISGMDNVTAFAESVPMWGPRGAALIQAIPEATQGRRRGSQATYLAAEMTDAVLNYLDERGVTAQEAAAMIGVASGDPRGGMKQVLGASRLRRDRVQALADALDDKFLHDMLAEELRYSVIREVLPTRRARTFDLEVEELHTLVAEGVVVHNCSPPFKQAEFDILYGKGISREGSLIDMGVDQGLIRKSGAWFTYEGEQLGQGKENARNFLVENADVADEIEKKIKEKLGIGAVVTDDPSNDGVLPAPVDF
Put plainly: Fluorescence Cell-Free Homogeneous Dose Retest to Identify Inhibitors of RecA-Intein Splicing Activity. [Related pubchem assays (depositor defined):AID2097, AID2223, AID489010, AID492950]. In kind it is functional.

The structures appear in SMILES notation. Activity calls are given as the source filed them.

Cytochrome P450 2C19, sequence (P33261 whole entry): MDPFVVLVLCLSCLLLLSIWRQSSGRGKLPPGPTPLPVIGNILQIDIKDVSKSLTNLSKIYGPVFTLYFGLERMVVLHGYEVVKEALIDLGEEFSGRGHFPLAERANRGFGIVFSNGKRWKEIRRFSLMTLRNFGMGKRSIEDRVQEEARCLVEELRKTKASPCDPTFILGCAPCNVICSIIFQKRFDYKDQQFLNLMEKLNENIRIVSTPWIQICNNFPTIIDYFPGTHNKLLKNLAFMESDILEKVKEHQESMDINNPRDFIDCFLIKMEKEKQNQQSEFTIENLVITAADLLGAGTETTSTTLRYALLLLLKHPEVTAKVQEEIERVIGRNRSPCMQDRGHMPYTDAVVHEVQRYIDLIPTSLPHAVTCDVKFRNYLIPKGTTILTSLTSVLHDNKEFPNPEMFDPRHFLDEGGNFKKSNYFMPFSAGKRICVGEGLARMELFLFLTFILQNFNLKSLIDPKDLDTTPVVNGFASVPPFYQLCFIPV
Cytochrome P450 2D6, sequence (P10635 whole entry): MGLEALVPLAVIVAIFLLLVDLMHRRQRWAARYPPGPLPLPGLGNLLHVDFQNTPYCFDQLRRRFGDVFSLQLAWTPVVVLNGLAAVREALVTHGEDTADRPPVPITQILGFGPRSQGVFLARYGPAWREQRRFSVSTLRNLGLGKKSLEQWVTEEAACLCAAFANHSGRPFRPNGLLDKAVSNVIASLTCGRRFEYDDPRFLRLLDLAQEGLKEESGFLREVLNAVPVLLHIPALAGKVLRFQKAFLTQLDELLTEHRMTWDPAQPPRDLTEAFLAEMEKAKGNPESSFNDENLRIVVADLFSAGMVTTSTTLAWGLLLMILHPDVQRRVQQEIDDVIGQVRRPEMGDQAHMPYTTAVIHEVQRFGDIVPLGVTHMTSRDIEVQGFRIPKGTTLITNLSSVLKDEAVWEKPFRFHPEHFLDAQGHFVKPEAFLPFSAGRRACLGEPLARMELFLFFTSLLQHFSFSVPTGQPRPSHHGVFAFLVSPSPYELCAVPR
Cytochrome P450 3A4, sequence (P08684 whole entry): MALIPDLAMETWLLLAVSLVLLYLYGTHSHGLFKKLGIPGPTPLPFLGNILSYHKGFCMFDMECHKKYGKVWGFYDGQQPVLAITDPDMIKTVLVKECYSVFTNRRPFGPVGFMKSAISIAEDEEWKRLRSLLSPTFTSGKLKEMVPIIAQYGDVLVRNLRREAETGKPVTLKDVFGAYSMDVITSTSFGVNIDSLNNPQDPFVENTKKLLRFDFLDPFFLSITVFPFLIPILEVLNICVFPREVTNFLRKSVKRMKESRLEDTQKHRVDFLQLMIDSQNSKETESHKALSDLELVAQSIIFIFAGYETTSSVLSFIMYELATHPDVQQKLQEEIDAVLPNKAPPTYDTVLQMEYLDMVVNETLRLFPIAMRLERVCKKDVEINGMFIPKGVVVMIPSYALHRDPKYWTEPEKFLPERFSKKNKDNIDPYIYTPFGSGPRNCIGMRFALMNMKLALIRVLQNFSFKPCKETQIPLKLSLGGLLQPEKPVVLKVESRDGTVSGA

What is called EC50 is the concentration at which the effect is half-maximal. Regarding `CCOc1ccccc1NS(=O)(=O)c1ccc(Br)s1`, the EC50 in data set [1] was > 120 µM (not active); in data set [2], 25.2 µM (active); in data set [3] it was > 120 µM (not active).
With `COc1ccc([N+](=O)[O-])cc1N=C(S)NC(NC(=O)C(c1ccccc1)c1ccccc1)C(Cl)(Cl)Cl` (stereo unspecified), the EC50 was 14.4 µM (active) in data set [4] and > 150 µM (not active) in the data set with Streptococcus.
Turning to `CCCc1nc2oc3c(NCCCN(C)C)ncnc3c2c2c1CCCC2`, the EC50 in data set [1] was 12.5 µM (active); in data set [2], > 120 µM (not active); in [3] it was 8.73 µM (active).
As a reminder, the AC50 is the concentration giving half of the maximal activity seen. As for `O=C(/C=C/c1ccccc1)N/C(=C/c1ccccc1)C(=O)Nc1ccccc1O`, the AC50 was 22.4 µM (inconclusive) on Cytochrome P450 2D6 and 17.8 µM (inconclusive) on Cytochrome P450 2C19 (read-out: AC50).
With `O=C(O)CCC(=O)N1CCC[C@H]1C(=O)O`, the AC50 entry on Cytochrome P450 2C19 is reported as “inconclusive”.
For the compound `CCC(C)(C)n1nnnc1C(c1ccc(C)cc1)N1CCC(C)CC1` (stereo unspecified), at Cytochrome P450 2D6, the AC50 was 17.8 µM (inconclusive).
`O=C(c1ccncc1)N1CCC2(CCN(Cc3nccs3)CC2)CC1`: the AC50 at Cytochrome P450 2D6 is 15.8 µM (inconclusive).
Take `COc1cccc(-c2nc(NC3CCNCC3)c3ccccc3n2)c1`: at Cytochrome P450 3A4, the AC50 is 25.1 µM (inconclusive).
In the case of `COC(=O)C1N2C(=O)[C@@H](NC(=O)COc3ccccc3)[C@H]2SC1(C)C` (stereo partly specified), the EC50 in [4] is 0.535 µM (active); in the data set with Streptococcus, 0.889 µM (active).
Turning to `CC(=O)NCCNc1ncncc1-c1ccccc1CN(C)C`, the results for the AC50 on Cytochrome P450 2D6 and on Cytochrome P450 3A4 were 39.8 µM (inconclusive) and 12.6 µM (inconclusive), respectively.
Regarding `CCOc1cc(C2NC(=O)NC(c3ccccc3)=C2C(C)=O)ccc1OCC(N)=O` (stereo unspecified), the AC50 on Cytochrome P450 3A4 is 20 µM (inconclusive).
In the case of `Cc1ccc(CCN2CC(C(=O)NCCN3CCCCCC3)CC2=O)cc1` (stereo unspecified), the AC50 is 20 µM (inconclusive) on Cytochrome P450 2D6, 35.5 µM (inconclusive) on Cytochrome P450 3A4 and “inconclusive” at Cytochrome P450 2C19.
`Cc1ccc(Sc2nc(C)cc(C)c2S(C)(=O)=O)cc1`: the values for the AC50 at Cytochrome P450 2D6 and at Cytochrome P450 3A4 were 17.8 µM (inconclusive) and 14.1 µM (inconclusive), respectively.
For the compound `CNCCc1c[nH]c2ccc(O)cc12`, the AC50 at Cytochrome P450 2D6 is 39.8 µM (inconclusive).
In the case of `COc1ccc(NC(=O)N2CC[C@@]3(CCCN(C(=O)c4cccn4C)C3)C2)cc1`, the concentration at half-maximal activity (AC50) at Cytochrome P450 3A4 is 2 µM (inconclusive).
Same read-out and setting: then `O=c1c(-c2cccs2)nc2cnc(Oc3cccc(Cl)c3)nc2n1C[C@H]1CCCO1`, with 10 µM (inconclusive).
Regarding `CC(=O)N1CCC[C@@]2(CCN(Cc3ccc(C#N)cc3)C2)C1`, the AC50 on Cytochrome P450 2D6 is 12.6 µM (inconclusive).
In the case of `O=C(C1CCCN(S(=O)(=O)c2ccc(Br)cc2)C1)N1CCN(Cc2ccccc2)CC1` (stereo unspecified), the EC50 in data set [1] was 15.5 µM (active); in data set [2] it was > 120 µM (not active); in data set [3], 22.7 µM (active).
For `O=C(/C=C/c1c(F)cccc1Cl)Nc1ncccn1`, the figures for the EC50 (in [5]; in the data set with H4) were 0.974 µM (active) and 7.88 µM (active), respectively.
In the case of `CCc1ccc(CNC(=O)C2CCN(S(=O)(=O)N3CC(C)CC(C)C3)CC2)cc1` (stereo unspecified), the EC50 in data set [1] was > 120 µM (not active); in data set [2], > 120 µM (not active); in [3] it was 93.3 µM (active).
For `COc1ccc(CCNS(=O)(=O)c2cccc3cccnc23)cc1OC`, the EC50 in [1], in [2] and in data set [3] was > 120 µM (not active) throughout.
As for `Cc1cccc(OCC(=O)NCC(=O)N/N=C/c2cc(Br)cc(Br)c2O)c1`, the EC50 in [4] was 0.486 µM (active); in the data set with Streptococcus, 1.66 µM (active).
In the case of `COc1ccc(-n2c(=O)c(C)nc3cnc(OC)nc32)cc1`, the AC50 was 25.1 µM (inconclusive) on Cytochrome P450 3A4 and 39.8 µM (inconclusive) on Cytochrome P450 2C19 (read-out: AC50).
For the compound `COCCNc1ncnc2ccc(-c3c(C)noc3C)cc12`, on Cytochrome P450 3A4, the AC50 is 31.6 µM (inconclusive).
Turning to `CCOC(=O)c1cnc2c(OC)cccc2c1N1CCN(c2ccccn2)CC1`, the EC50 in data set [1] was 15.6 µM (active); in data set [2], 53.9 µM (active); in [3], 11.5 µM (active).
Turning to `CS(=O)(=O)N1CCC2(CCCN(C(c3ccccc3)c3ccccc3)C2)CC1`, the AC50 on Cytochrome P450 2C19 (read-out: AC50) is 20 µM (inconclusive).
Regarding `Cc1ccccc1-c1nc(NCc2cccnc2)c2ccccc2n1`, the AC50 was 39.8 µM (inconclusive) on Cytochrome P450 2D6 and 15.8 µM (inconclusive) on Cytochrome P450 2C19 (read-out: AC50).
As for `COc1ccc(O[C@H]2C=C[C@@H](c3ccccc3)O[C@H]2COC(=O)N2CCCCC2)cc1`, the AC50 on Cytochrome P450 2D6 is 3.98 µM (inconclusive).
Consider `COc1ccc2c(c1)C1=NN(/C(C)=C\C(C)=O)C(c3ccccc3)C1CC2` (stereo unspecified), for which the concentration giving a half-maximal response (EC50) was 24.7 µM (active) in data set [5] and 7.74 µM (active) with H4.
Regarding `COc1cccc(N2C(=O)C(CC(=O)Nc3ccccc3)N(C3CCCCC3)C2=O)c1` (stereo unspecified), on Cytochrome P450 2D6, the AC50 is 17.8 µM (inconclusive).
For `C[C@@]12C(=O)N(Cc3ccccc3)CC(=O)N1[C@H](/C=C/c1ccccc1)[C@@H]1C(=O)N(c3ccccc3)C(=O)[C@@H]12`, the EC50 in data set [1] is 25.8 µM (active); in [2], > 120 µM (not active); in [3], 14.9 µM (active).
Regarding `CC(=O)Nc1ccc(S(=O)(=O)N(Cc2cccnc2)Cc2cc3ccc(C)cc3nc2O)cc1`, the EC50 in data set [1], in data set [2] and in [3] was > 120 µM (not active) throughout.
For the compound `COc1ccc(-c2cc(C)no2)cc1S(=O)(=O)N1CCOc2ccccc21`, the EC50 in data set [1] is > 120 µM (not active); in [2] it was 83.5 µM (active); in [3] it was 31.4 µM (active).
On to `CCn1c(S)nnc1CC(=O)Nc1ccc(C)cc1`, for which the EC50 in data set [1], in [2] and in [3] was > 120 µM (not active) each time.
Regarding `Cc1ccc2[nH]c(SCC(=O)Nc3nnc(SCC(N)=O)s3)nc2c1`, the AC50 at Cytochrome P450 3A4 and on Cytochrome P450 2C19 (read-out: AC50) was 22.4 µM (inconclusive) each time.
Take `COCCn1c(=O)c(C)nc2cnc(Oc3cccc(Cl)c3)nc21`: the AC50 on Cytochrome P450 2C19 (read-out: AC50) was 20 µM (inconclusive).
For `O=C(c1cnc(N2CCN(c3ncccn3)CC2)c2ccccc12)N1CCN(c2ncccn2)CC1`, the AC50 was 11.2 µM (inconclusive) at Cytochrome P450 2D6 and 39.8 µM (inconclusive) at Cytochrome P450 3A4.
On to `CCCC[C@@H]1C[C@H]1C(NC(=O)Cc1ccccc1)c1ccc(-c2ccccc2)cc1` (stereo partly specified), for which the AC50 at Cytochrome P450 3A4 was 12.6 µM (inconclusive).
Turning to `CCOC(=O)CSc1nnc(CSc2nc3sc4c(c3c(=O)[nH]2)CCCC4)n1-c1ccccc1`, the AC50 at Cytochrome P450 3A4 is 1 µM (inconclusive).
For the compound `O=[N+]([O-])c1cc(/C=N/O)ccc1SCc1ccccc1`, the AC50 is 11.2 µM (inconclusive) on Cytochrome P450 3A4 and 6.31 µM (inconclusive) at Cytochrome P450 2C19 (read-out: AC50).
As to `COc1ccc(/C=C/C(=O)c2c(C)nc3ccccn23)cc1`, the figures for the EC50 (in [5]; in the data set on H4) were 0.225 µM (active) and > 120 µM (not active), respectively.
In the case of `CCO/C=C1/C(=O)N(Cc2ccccc2)C(=O)c2ccccc21`, the EC50 on Protein RecA is > 380 µM (inactive).
`CN(C)c1ccc(-c2nc(NCc3cccnc3)c3ccccc3n2)cc1`: at Cytochrome P450 2C19 (read-out: AC50), the AC50 was 10 µM (inconclusive).
Take `O=C(/C=C\c1ccccc1)c1ccccc1O`: the AC50 at Cytochrome P450 2C19 (read-out: AC50) is 3.98 µM (inconclusive).
For the compound `SC1=NC2=C(C(c3ccc(Br)cc3)N1)N1CCC2CC1` (stereo unspecified), the AC50 at Cytochrome P450 3A4 was 1.58 µM (inconclusive).
